Reference: PubChem BioAssay AID743420 (The Scripps Research Institute Molecular Screening Center, 2014)
The source made the active and inactive calls. How the calls were made is not given here.

Target: Sphingosine 1-phosphate receptor 5 (Homo sapiens) (UniProt Q9H228)
Experiment: agonism at human S1PR5 – cell-based, FRET, dose response, counter-screen for S1PR3 antagonist project, late-stage follow-up (AID 743420)
Conditions: S1P5 cell-based FRET assay, agonist mode

Chain of Sphingosine 1-phosphate receptor 5 (Homo sapiens) (Q9H228 whole entry, looked up): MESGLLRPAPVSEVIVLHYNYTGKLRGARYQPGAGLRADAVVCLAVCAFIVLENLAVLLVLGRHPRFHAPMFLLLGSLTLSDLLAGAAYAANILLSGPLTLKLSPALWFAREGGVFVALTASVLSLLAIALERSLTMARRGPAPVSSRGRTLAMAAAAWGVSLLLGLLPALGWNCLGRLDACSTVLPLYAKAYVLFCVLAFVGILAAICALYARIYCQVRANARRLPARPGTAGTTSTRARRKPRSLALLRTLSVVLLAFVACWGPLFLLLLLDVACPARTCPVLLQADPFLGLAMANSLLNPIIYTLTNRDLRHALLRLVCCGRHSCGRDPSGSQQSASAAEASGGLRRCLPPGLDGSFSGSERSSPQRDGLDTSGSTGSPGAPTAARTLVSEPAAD

Structure (SMILES)	EC50
O=C(NC(c1ccc(Cl)c(Cl)c1)c1nc(-c2ccccc2)no1)c1ccc(Cl)c(Cl)c1 (configuration not stated)	> 28.2 µM (inactive)
O=C(NC(c1ccccc1)c1nc(-c2ccccc2)no1)c1cccc(Cl)n1 (configuration not stated)	> 28.2 µM (inactive)
Cc1ccc(C(NC(=O)c2cccc(Cl)c2)c2nc(-c3ccccc3)no2)cc1 (configuration not stated)	> 28.2 µM (inactive)
O=C(NC(Cc1ccccc1)c1nc(-c2ccccc2)no1)c1cccc(Cl)c1 (configuration not stated)	> 28.2 µM (inactive)
O=C(NC(c1ccc(Cl)cc1)c1nc(-c2cccc(Cl)c2)no1)c1cccc(Cl)c1 (configuration not stated)	> 28.2 µM (inactive)
O=C(NC(c1cccc(Cl)c1)c1nc(-c2ccccc2)no1)c1ccc(Cl)c(Cl)c1 (configuration not stated)	> 28.2 µM (inactive)
O=C(NC(c1ccccc1)c1nc(-c2ccccc2)no1)c1ccc(Cl)cc1 (configuration not stated)	> 28.2 µM (inactive)
O=C(NC(c1nc(-c2ccccc2)no1)C1CCCCC1)c1ccc(Cl)c(Cl)c1 (configuration not stated)	> 28.2 µM (inactive)
O=C(NC(c1ccc(Cl)cc1)c1nc(-c2ccccn2)no1)c1cccc(Cl)c1 (configuration not stated)	> 28.2 µM (inactive)
COc1ccc(C(=O)NC(c2ccccc2)c2nc(-c3ccccc3)no2)cc1 (configuration not stated)	> 28.2 µM (inactive)
O=C(NC(c1nc(-c2ccccc2)no1)C1CCOCC1)c1ccc(Cl)c(Cl)c1 (configuration not stated)	> 28.2 µM (inactive)
O=C(NC(c1ccccc1)c1nc(-c2ccccc2)no1)c1cccc(Br)c1 (configuration not stated)	> 28.2 µM (inactive)
Cc1ccc(C(=O)NC(c2ccccc2)c2nc(-c3ccccc3)no2)cc1 (configuration not stated)	> 28.2 µM (inactive)
CCc1ccc(C(NC(=O)c2cccc(Cl)c2)c2nc(-c3ccccc3)no2)cc1 (configuration not stated)	> 28.2 µM (inactive)
N#Cc1ccc(C(=O)NC(c2ccc(Cl)c(Cl)c2)c2nc(-c3ccccc3)no2)cc1 (configuration not stated)	> 28.2 µM (inactive)
O=C(c1cccc(Cl)c1)N(CCO)C(c1ccc(Cl)c(Cl)c1)c1nc(-c2ccccc2)no1 (configuration not stated)	> 28.2 µM (inactive)
O=C(NC(c1ccc(Br)cc1)c1nc(-c2ccccc2)no1)c1ccc(Cl)c(Cl)c1 (configuration not stated)	> 28.2 µM (inactive)
O=C(NC(c1ccc(Cl)c(Cl)c1)c1nc(-c2ccccc2)no1)c1ccc(Cl)cc1 (configuration not stated)	> 28.2 µM (inactive)
O=C(NC(c1cccc(Cl)c1)c1nc(-c2ccccc2)no1)c1cccc(Cl)c1 (configuration not stated)	> 28.2 µM (inactive)
O=C(NC(c1ccc(Cl)cc1)c1nc(-c2ccccc2)no1)c1cccc(Cl)c1 (configuration not stated)	> 28.2 µM (inactive)
O=C(NC(c1ccc(Cl)cc1)c1nc(-c2ccccc2)no1)c1cccc(Br)c1 (configuration not stated)	> 28.2 µM (inactive)
O=C(NC(c1ccccc1)c1nc(-c2ccccc2)no1)c1cccc(Cl)c1 (configuration not stated)	> 28.2 µM (inactive)
O=C(NC(c1cccc(Cl)c1)c1nc(-c2ccccc2)no1)c1cc(Cl)cc(Cl)c1 (configuration not stated)	> 28.2 µM (inactive)
O=C(NC(c1ccc(Cl)cc1)c1nc(-c2ccccc2)no1)c1ccc(Cl)c(Br)c1 (configuration not stated)	> 28.2 µM (inactive)
O=C(NC(c1ccc(Cl)c(Cl)c1)c1nc(-c2ccccc2)no1)c1ccccc1 (configuration not stated)	> 28.2 µM (inactive)
O=C(NC(c1ccc(Cl)c(Cl)c1)c1nc(-c2ccccc2)no1)c1cccc(Cl)c1 (configuration not stated)	> 28.2 µM (inactive)
O=C(NC(c1ccc(Cl)cc1)c1nc(-c2ccccc2)no1)c1ccc(Cl)c(Cl)c1 (configuration not stated)	> 28.2 µM (inactive)
